Test results taken from the supplement of paper PMC13380429.

Tests used:
Conditions in all cases: 72 h
[1] = system: Caco-2; assay: relative viability EC50 (midpoint between 100% and the lowest measured viability); higher = less toxic
[2] = system: HepG2; assay: as above
[3] = system: U2OS; assay: as above
[4] = system: Vero E6; assay: as above
[5] = system: Caco-2; assay: drug sensitivity score (DSS) for viability; higher = more toxic; extreme values may be limits of the assay
[6] = system: HepG2; assay: as above
[7] = system: U2OS; assay: as above
[8] = system: Calu-3; assay: as above
[9] = system: Vero E6; assay: as above
[10] = system: Caco-2; assay: cell viability relative to DMSO; higher = less toxic
[11] = system: HepG2; assay: as above
[12] = system: U2OS; assay: as above
[13] = system: Calu-3; assay: as above
[14] = system: Vero E6; assay: as above
[15] = system: Calu-3; assay: relative viability EC50 (midpoint between 100% and the lowest measured viability); higher = less toxic

Row | Compound | relative viability EC50 [1] [µM] | relative viability EC50 [2] [µM] | relative viability EC50 [3] [µM] | relative viability EC50 [4] [µM] | drug sensitivity score [5] | drug sensitivity score [6] | drug sensitivity score [7] | drug sensitivity score [8] | drug sensitivity score [9] | cell viability ([10]; 1 nM) [%] | cell viability ([10]; 10 nM) [%] | cell viability ([10]; 100 nM) [%] | cell viability ([10]; 1000 nM) [%] | cell viability ([10]; 10000 nM) [%] | cell viability ([11]; 1 nM) [%] | cell viability ([11]; 10 nM) [%] | cell viability ([11]; 100 nM) [%] | cell viability ([11]; 1000 nM) [%] | cell viability ([11]; 10000 nM) [%] | cell viability ([12]; 1 nM) [%] | cell viability ([12]; 10 nM) [%] | cell viability ([12]; 100 nM) [%] | cell viability ([12]; 1000 nM) [%] | cell viability ([12]; 10000 nM) [%] | cell viability ([13]; 1 nM) [%] | cell viability ([13]; 10 nM) [%] | cell viability ([13]; 100 nM) [%] | cell viability ([13]; 1000 nM) [%] | cell viability ([13]; 10000 nM) [%] | cell viability ([14]; 1 nM) [%] | cell viability ([14]; 10 nM) [%] | cell viability ([14]; 100 nM) [%] | cell viability ([14]; 1000 nM) [%] | cell viability ([14]; 10000 nM) [%] | relative viability EC50 [15] [µM]
1 | Cc1ccc(CCCO)c(NCc2ccc3nc(NCCCN4CCOCC4)n(Cc4nc(C)ccc4O)c3c2)c1 | > 10 | > 10 | > 10 | > 10 | 0 | 0 | 0 | 1.9 | 0 | 101 | 97.7 | 97.6 | 101 | 90 | 89.5 | 100 | 103 | 109 | 89.1 | 98.1 | 97.1 | 97.6 | 96.5 | 95.1 | 115 | 96.4 | 104 | 93.6 | 74.8 | 99.6 | 92.7 | 97.7 | 102 | 102 | –
2 | Cn1c(-c2ccccc2)nnc1S(C)(=O)=O | > 10 | > 10 | > 10 | > 10 | 0 | 0 | 0 | – | 0 | 93 | 85.8 | 103 | 103 | 103 | 97.4 | 99.1 | 99.1 | 93.9 | 94.5 | 99.4 | 96.9 | 96.4 | 99.3 | 103 | – | – | – | – | – | 89.6 | 92.9 | 99.3 | 94.9 | 105 | –
3 | O=C(Nc1ccc(S(=O)(=O)C(F)(F)F)cc1)C1=CCN(c2ncccc2C(F)(F)F)CC1 | – | 2.67 | > 10 | > 10 | 2.2 | 3.9 | 0.2 | 0.5 | 0.7 | 97.3 | 98.4 | 90.7 | 97.4 | 62.4 | 107 | 87.9 | 104 | 96.2 | 38.6 | 96.1 | 101 | 93.2 | 101 | 84.9 | 96.2 | 106 | 99.6 | 101 | 79.9 | 99.6 | 91.7 | 91.3 | 88.9 | 94.7 | > 10
4 | Nc1nc(Cl)nc2c1ncn2[C@@H]1O[C@H](CO)[C@@H](O)[C@H]1O [2-chloroadenosine] | – | > 10 | > 10 | > 10 | – | 0.3 | 0 | 0.1 | 0 | – | – | – | – | – | 99.9 | 101 | 104 | 104 | 81.8 | 101 | 96.1 | 102 | 107 | 101 | 110 | 103 | 98.8 | 113 | 84.5 | 93.4 | 102 | 103 | 102 | 93.7 | > 10
5 | Cc1ccc([N+](=O)[O-])cc1O [2-methyl-5-nitrophenol] | > 10 | > 10 | > 10 | > 10 | 0 | 0 | 0 | – | 0 | 96.9 | 105 | 101 | 94.3 | 95.3 | 106 | 91 | 99.4 | 100 | 102 | 108 | 96 | 101 | 96.1 | 102 | – | – | – | – | – | 99.9 | 94.4 | 94.3 | 98.6 | 96.2 | –
6 | O=Cc1ccc(CO)o1 [5-HMF] | – | – | > 10 | > 10 | – | – | 0 | 0 | 0 | – | – | – | – | – | – | – | – | – | – | 99.6 | 99.8 | 104 | 102 | 106 | 96.6 | 98.2 | 97.3 | 94.5 | 104 | 103 | 99.9 | 99.7 | 105 | 97.3 | > 10
7 | Nc1c2ccccc2nc2ccccc12 [9-aminoacridine] | – | 2.14 | 3.14 | 1.89 | 1.1 | 7.2 | 3.6 | 1.2 | 6.6 | 103 | 115 | 96.2 | 134 | 60.5 | 93.5 | 96.5 | 99.8 | 88.1 | 5.5 | 94.6 | 98 | 95 | 99.8 | 34.9 | 94.4 | 92.4 | 105 | 110 | 64.6 | 106 | 104 | 108 | 86.5 | 20.3 | –
8 | O=C(NO)C1(CS(=O)(=O)c2ccc(Oc3ccc(Cl)cc3)cc2)CCOCC1 [CTS-1027] | – | > 10 | > 10 | > 10 | 1.2 | 0 | 0 | 0 | 0 | 104 | 109 | 105 | 98.8 | 74.3 | 97.7 | 88.7 | 104 | 83.5 | 96.3 | 99.7 | 105 | 100 | 106 | 88.1 | 95 | 101 | 93.1 | 104 | 98.2 | 101 | 104 | 99.4 | 95 | 94.5 | > 10
9 | O=C(N[C@H](Cc1ccccc1)C(=O)O)c1sc2cc(F)ccc2c1Cl [CU-CPT-4a] | > 10 | > 10 | > 10 | > 10 | 0 | 0 | 0 | – | 0 | 99.3 | 102 | 91.1 | 93.5 | 102 | 107 | 106 | 92.7 | 90.1 | 100 | 97.2 | 97.1 | 94.4 | 98.2 | 96.7 | – | – | – | – | – | 107 | 103 | 102 | 99.1 | 104 | –
10 | CCCCC(=O)NCCc1c(Cc2ccccc2)[nH]c2ccccc12 [DH-97] | > 10 | > 10 | > 10 | > 10 | 0 | 0 | 0 | – | 0 | 102 | 101 | 96.8 | 92.3 | 96 | 90.8 | 100 | 100 | 105 | 103 | 100 | 94.7 | 99.9 | 95.1 | 96.7 | – | – | – | – | – | 102 | 98.7 | 99.8 | 97 | 93.8 | –
11 | O=C1C[C@@H](c2ccc(O)cc2)Oc2cc(O)ccc21 [MF-101] | – | > 10 | > 10 | > 10 | 0.4 | 0 | 0 | 0 | 0 | 81.1 | 99.7 | 92.3 | 103 | 78.1 | 95.8 | 93.7 | 103 | 97.6 | 90.4 | 98.4 | 95.4 | 96.4 | 99.7 | 95.9 | 103 | 112 | 106 | 104 | 99.4 | 101 | 102 | 95.3 | 92.1 | 99.8 | > 10
12 | CCc1nc(-c2cccc(C)c2)c(-c2ccnc(NC(=O)c3ccccc3)c2)s1 [TAK-715] | – | – | > 10 | > 10 | 4.3 | 1.8 | 0.4 | 1 | 0.8 | 97.5 | 102 | 92 | 78.1 | 65.6 | 93 | 94.6 | 94.6 | 94.6 | 73.5 | 100 | 103 | 98.3 | 93.6 | 85.5 | 90.5 | 101 | 91.8 | 93.7 | 78.2 | 93.5 | 102 | 94.8 | 90.6 | 82.2 | > 10
13 | Cc1nnc(-c2ccc3occ(-c4ccc([S+](C)[O-])cc4)c3c2)o1 (stereo not given) [TCS2002] | > 10 | > 10 | > 10 | > 10 | 0 | 0 | 0 | – | 0 | 103 | 96.7 | 98.5 | 108 | 108 | 94 | 97.2 | 99.3 | 93 | 112 | 102 | 103 | 101 | 99.3 | 98.5 | – | – | – | – | – | 96.1 | 95.9 | 99.1 | 90.6 | 101 | –
14 | O=C(O[C@H]1C[N+]2(CCCOc3ccccc3)CCC1CC2)C(O)(c1cccs1)c1cccs1 [aclidinium] | > 10 | > 10 | > 10 | > 10 | 0 | 0 | 0 | – | 0 | 105 | 87.8 | 99.6 | 94.3 | 104 | 93.5 | 98.9 | 91.8 | 101 | 92.9 | 98.4 | 95.9 | 97.1 | 97.2 | 99.1 | – | – | – | – | – | 103 | 95.5 | 101 | 96.6 | 98.7 | –
15 | Nc1nc2c(ncn2COCCO)c(=O)[nH]1 [acyclovir] | – | > 10 | > 10 | > 10 | – | 0 | 0 | 0 | 0 | – | – | – | – | – | 96.3 | 92 | 95.1 | 94.7 | 96.3 | 91.6 | 101 | 94.7 | 99.7 | 104 | 95.3 | 101 | 102 | 106 | 119 | 110 | 92.7 | 98.3 | 98 | 101 | > 10
16 | NC(=O)NC1NC(=O)NC1=O (stereo not given) [allantoin] | > 10 | > 10 | > 10 | > 10 | 0 | 0 | 0 | – | 0 | 102 | 109 | 96.3 | 100 | 93.5 | 114 | 107 | 104 | 99.9 | 95.5 | 99 | 102 | 99.5 | 103 | 97.8 | – | – | – | – | – | 108 | 98.5 | 103 | 102 | 102 | –
